Patent US8110686B2 (Chugai Seiyaki Kabushiki Kaisha, priority 2001, dated 2012)

What was measured:
[1] = target: T1, malonyl-CoA decarboxylase prepared from rat heart (Rattus norvegicus, UniProt Q920F5); test: In vitro MCD inhibitory assay (spectrophotometric, 96 well); type: biochemical; conditions: read-out: IC50 of the MCD inhibitors
T1 construct: malonyl-CoA decarboxylase prepared from rat heart; from tissue; host or cells: rat heart
T1 sequence (Q920F5 39-492): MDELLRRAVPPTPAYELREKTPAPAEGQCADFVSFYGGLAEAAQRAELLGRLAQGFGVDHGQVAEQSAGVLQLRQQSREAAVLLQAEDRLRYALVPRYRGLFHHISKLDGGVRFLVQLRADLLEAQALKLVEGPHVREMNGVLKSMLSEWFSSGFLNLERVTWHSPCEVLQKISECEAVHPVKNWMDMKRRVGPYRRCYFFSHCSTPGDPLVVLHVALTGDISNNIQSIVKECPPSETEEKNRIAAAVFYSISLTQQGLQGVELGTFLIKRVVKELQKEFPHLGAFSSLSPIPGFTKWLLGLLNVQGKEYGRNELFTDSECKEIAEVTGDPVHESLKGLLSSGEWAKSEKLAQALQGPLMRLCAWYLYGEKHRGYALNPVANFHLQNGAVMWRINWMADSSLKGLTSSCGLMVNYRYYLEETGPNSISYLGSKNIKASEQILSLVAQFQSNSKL
Protocol: The following reagents are added into a 96 well titer plate: Tris-HCl buffer, 20 μL; DTE, 10 μL; l-malate, 20 μL; NAD, 10 μL; NADH, 25 μL; water, 80 μL; malic dehydrogenase, 5 μL. The contents are mixed and incubated for 2 min followed by the addition of 5 μL of citrate synthase. […] The content is incubated and absorbence at […] is measured.
Active compounds are characterized by the concentration of the compound that caused 50% inhibition of MCD activity (IC50).

[2] = test system: isolated working hearts from male Sprague-Dawley rats; test: Glucose oxidation and fatty acid oxidation measurement in the perfused rat heart; conditions: isolated perfused rat heart assay; versus ranolazine or trimetazidine
Protocol: Isolated working hearts from male Sprague-Dawley rats are subjected to a 60-minute aerobic perfusion period with a modified Krebs-Henseleit solution containing 5 mmol/L glucose; 100 μU/mL insulin; 3% BAS; and 1.2 mmol/L palmitate. Working hearts are used in these studies to approximate the metabolic demand of the heart seen in vivo. (Kantor et al., Circulation Research 86:580-588 (2000)). The test compound is added 5 minutes into the perfusion period.
Glucose oxidation rates are determined by the quantitative collection of ^14CO2 produced by hearts perfused with buffer containing […]. Rates of fatty acid oxidation are determined by the quantitative collection of ^14CO2 produced by hearts perfused with buffer containing [^14C]palmitate (McNeill, J. H. in “Measurement of cardiovascular function”, chapter 2, CRC press, New York (1997)).
Active compounds are characterized by an increase in glucose oxidation as compared to control experiment (DMSO). The compounds that caused statistically significant increases in glucose oxidation are considered to be active. The preferred compounds cause statistically significant increases in glucose oxidation at 20 μM. Statistical significance was calculated using the Student's t test for paired or unpaired samples, as appropriate. The results with P<0.05 are considered to be statistically significant.

| IC50 [1] [µM] | melting point [°C] | Structure (SMILES) | effects in metabolism shift compared with known metabolism modulators [2] |
| --- | --- | --- | --- |
| 0.031 |  | CC(C)CN(C(=O)Nc1ccc(C(F)(F)F)cc1)c1ccc2nc(S)sc2c1 [Table 3; entry 1, N-(2-mercapto-1,3-benzothiazol-6-yl)-N-(2-methylpropyl)-N′-[4-(trifluoromethyl)phenyl]urea] |  |
| 0.093 |  | CC(C)CN(C(=O)Nc1ccc(C#N)cc1)c1ccc2nc(S)sc2c1 [Table 3; entry 3] |  |
| 0.023 |  | CC(C)N(C(=O)Nc1ccc(C(F)(F)F)cc1)c1ccc2nc(S)sc2c1 [Table 3; entry 16] | more profound effects in metabolism shift than the known metabolism modulators such as ranolazine or trimetazidine |
| 0.042 |  | CC(C)N(C(=O)Nc1ccc(CC(=O)O)cc1)c1ccc2nc(S)sc2c1 [Table 3; entry 17] |  |
| 1.6 |  | CC(C)N(C(=O)OCCOCc1ccccc1)c1ccc2nc(S)sc2c1 [Table 4; entry 6] |  |
|  | > 266 | O=C1CNC(=S)N1c1ccc2nc(S)sc2c1 [Table 5; entry 1, 3-(2-mercapto-1,3-benzothiazol-6-yl)-2-thioxoimidazolidin-4-one] |  |
| 0.052 |  | CC(C)N(C(=O)Nc1ccc(C(F)(F)F)cc1)c1ccc2nc(S)sc2n1 [Table 7; entry 8] |  |
| 0.098 | 107.5 to 109 | CCN(C(=O)COc1ccccc1)c1ccc2nc(S)sc2n1 [Table 8; entry 1, N-ethyl-N-(2-mercapto-thiazolo[5,4-b]pyridin-5-yl)-2-phenoxy-acetamide] |  |
| 0.025 |  | CC(C)N(C(=O)c1ccc(C(F)(F)F)cc1)c1ccc2nc(S)sc2n1 [Table 8; entry 7] | more profound effects in metabolism shift than the known metabolism modulators such as ranolazine or trimetazidine |

| Structure (SMILES) | IC50 [1] [µM] | melting point [°C] | effects in metabolism shift compared with known metabolism modulators [2] |
| --- | --- | --- | --- |
| CC(C)N(C(=O)Oc1ccc(Cl)cc1)c1ccc2nc(S)sc2c1 [Table 4; entry 4] | 0.075 |  |  |
| CCCCOc1ccc(NC(=O)N(CC)c2ccc3nc(S)sc3n2)cc1 [Table 7; entry 1, 3-(4-butoxy-phenyl)-1-ethyl-1-(2-mercapto-thiazolo[5,4-b]pyridin-5-yl)-urea] | 0.062 | 134.3 to 135 |  |
